# Experimental data reported in PMC7217817 (Clinical Pharmacokinetics, 2019).
# Like-named read-outs stand apart in the source and are kept apart here.
# Experiments:
# P-gp [1] = settings: cited from earlier work; for Mean AUC∞ ratio of victim drug / Mean Cmax ratio of victim drug: Observed
# CYP3A = settings: cited from earlier work
# P-gp [2] = biological target: T1, P-gp (Homo sapiens, UniProt P08183); settings: in vitro and clinical studies; cited from earlier work
# P-gp [3] = biological target: T1, P-gp; assay: P-gp inhibition; assay type: in vitro ADME; settings: following administration of 150 or 200 mg of elagolix
# [4] = Clinical multiple-dose pharmacokinetics of elagolix in healthy subjects; assay type: in vivo, human; settings: for AUCτ / CL/F / Cmax: healthy subjects
# [5] = cited from earlier work
# [6] = single-dose elagolix 150 mg with ketoconazole 400 mg, Observed; cited from earlier work
# [7] = Child–Pugh A patients compared with healthy volunteers; cited from earlier work
# [8] = digoxin day 1 with elagolix 200 mg BID
# [9] = digoxin day 10 with elagolix 200 mg BID
# [10] = midazolam with elagolix 150 mg QD, Observed
# [11] = 150 mg QD (N = 6), Day 21, Observed
# [12] = 200 mg BID (N = 7), Day 21, Observed
# T1 sequence (P08183 whole entry): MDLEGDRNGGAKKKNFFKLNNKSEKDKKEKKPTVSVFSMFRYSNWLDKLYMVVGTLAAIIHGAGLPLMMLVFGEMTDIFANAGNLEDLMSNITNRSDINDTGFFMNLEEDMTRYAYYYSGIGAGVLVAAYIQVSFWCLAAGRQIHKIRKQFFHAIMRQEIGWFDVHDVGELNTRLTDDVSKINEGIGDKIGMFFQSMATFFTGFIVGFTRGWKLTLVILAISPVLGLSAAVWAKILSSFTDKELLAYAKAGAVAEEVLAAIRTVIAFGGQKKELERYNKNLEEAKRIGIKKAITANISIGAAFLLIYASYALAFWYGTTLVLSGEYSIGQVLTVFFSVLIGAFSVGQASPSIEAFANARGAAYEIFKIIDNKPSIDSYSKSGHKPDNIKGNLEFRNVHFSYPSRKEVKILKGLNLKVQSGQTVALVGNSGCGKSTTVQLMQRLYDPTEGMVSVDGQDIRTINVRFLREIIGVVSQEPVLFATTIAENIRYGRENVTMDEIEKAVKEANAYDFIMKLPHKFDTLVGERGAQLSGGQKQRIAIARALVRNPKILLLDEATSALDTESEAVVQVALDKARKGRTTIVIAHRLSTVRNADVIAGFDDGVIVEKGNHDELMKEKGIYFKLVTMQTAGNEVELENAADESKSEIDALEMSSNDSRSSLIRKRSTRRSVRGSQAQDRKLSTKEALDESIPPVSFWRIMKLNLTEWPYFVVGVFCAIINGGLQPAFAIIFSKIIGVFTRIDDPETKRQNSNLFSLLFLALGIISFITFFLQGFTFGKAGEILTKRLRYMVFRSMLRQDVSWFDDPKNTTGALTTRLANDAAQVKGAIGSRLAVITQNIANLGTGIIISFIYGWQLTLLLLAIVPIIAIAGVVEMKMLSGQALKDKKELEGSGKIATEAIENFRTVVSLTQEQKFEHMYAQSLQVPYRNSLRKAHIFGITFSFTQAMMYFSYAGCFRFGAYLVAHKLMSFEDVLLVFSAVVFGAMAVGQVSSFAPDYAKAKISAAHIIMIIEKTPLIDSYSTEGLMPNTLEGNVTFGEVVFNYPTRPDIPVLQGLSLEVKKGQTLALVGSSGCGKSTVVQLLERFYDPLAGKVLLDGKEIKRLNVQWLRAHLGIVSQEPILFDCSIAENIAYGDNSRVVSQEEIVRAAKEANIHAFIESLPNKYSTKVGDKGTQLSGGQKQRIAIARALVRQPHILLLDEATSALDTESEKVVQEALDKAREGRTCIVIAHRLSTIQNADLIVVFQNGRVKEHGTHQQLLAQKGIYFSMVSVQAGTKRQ
compound,measurement,setting,value
"C[C@H]1O[C@@H](O[C@H]2[C@@H](O)C[C@H](O[C@H]3[C@@H](O)C[C@H](O[C@H]4CC[C@@]5(C)[C@H](CC[C@@H]6[C@@H]5C[C@@H](O)[C@]5(C)[C@@H](C7=CC(=O)OC7)CC[C@]65O)C4)O[C@@H]3C)O[C@@H]2C)C[C@H](O)[C@@H]1O [Digoxin, digoxin]",Mean AUC∞ ratio of victim drug,P-gp [1]; [8],1.32
same,Mean Cmax ratio of victim drug,P-gp [1]; [8],1.73
same,Mean AUC∞ ratio of victim drug,P-gp [1]; [9],1.26
same,Mean Cmax ratio of victim drug,P-gp [1]; [9],1.71
same,Increase in digoxin AUC,"P-gp [1]; elagolix 200 mg BID, observed",~30%
same,Increase in digoxin Cmax,"P-gp [1]; elagolix 200 mg BID, observed",approximately 70%
"Cc1ncc2n1-c1ccc(Cl)cc1C(c1ccccc1F)=NC2 [Midazolam, midazolam]",Decrease in midazolam AUC,"CYP3A; elagolix 150 mg QD, observed",35%
same,Mean AUC∞ ratio of victim drug,CYP3A; [10],0.65
same,Mean Cmax ratio of victim drug,CYP3A; [10],0.81
"CO[C@H]1/C=C/O[C@@]2(C)Oc3c(C)c(O)c4c(O)c(c(/C=N/N5CCN(C)CC5)c(O)c4c3C2=O)NC(=O)/C(C)=C\C=C\[C@H](C)[C@H](O)[C@@H](C)[C@@H](O)[C@@H](C)[C@H](OC(C)=O)[C@@H]1C [Rifampin, rifampin]",Induction of P-gp expression,P-gp [2],four folds
COc1cccc(-c2c(C)n(Cc3c(F)cccc3C(F)(F)F)c(=O)n(C[C@H](NCCCC(=O)O)c3ccccc3)c2=O)c1F [elagolix],Ki for P-gp below predicted intestinal elagolix concentration in the gastrointestinal lumen,P-gp [3],approximately 500 fold
same,AUCτ,"[4]; 150 mg QD (N = 6), Day 1, Observed",1331 ng●h/mL
same,AUCτ,[4]; [11],1292 ng●h/mL
same,CL/F,[4]; [11],123 L/h
same,AUCτ,"[4]; 200 mg BID (N = 7), Day 1, Observed",1813 ng●h/mL
same,AUCτ,[4]; [12],1725 ng●h/mL
same,CL/F,[4]; [12],144 L/h
same,Tmax,"[4]; human, plasma, oral, 150 mg",1.3 h
same,half-life,"[4]; human, plasma, oral, 150 mg",6.42 h
same,Cmax,"[4]; human, plasma, oral, 150 mg, 150 mg QD (N = 6), Day 1, Observed",507 ng/mL
same,half-life,"[4]; human, plasma, oral, 200 mg",4.29 h
same,Cmax,"[4]; human, plasma, oral, 200 mg, 200 mg BID (N = 7), Day 1, Observed",712 ng/mL
same,Apparent terminal elimination half-life (t½),[5]; clinical doses of 150 mg QD and 200 mg BID,4 to 6 h
same,Time of maximum plasma concentration (Cmax) after dosing,[5]; oral administration,1 h
same,Mean Cmax ratio of elagolix,[6],1.77
same,Impact of hepatic impairment on elagolix exposures,[7],no impact
